The text below walks through data of US20110183949A1, “Use of Fulvestrant in the Treatment of Resistant Breast Cancer” (priority 2000, published 2011).

Where only a bound is given, the exact number is not on record here.

Test [1] has as its system breast cancer. In words: treatment of breast cancer patients who failed previous aromatase inhibitor treatment. The format is in vivo, human. The settings on record: patients previously treated with an aromatase inhibitor (optionally also a SERM) and failed.
The test system of test [2] is MCF-7 human breast cancer cells. Conditions: MCF-7 cells, cited from earlier work; for reduction in MCF-7 cell numbers (inhibition): same conditions for fulvestrant and tamoxifen (tamoxifen: maximum).
The next test concerns estrogen receptor (ER). Conditions: relative to oestradiol equivalent of 1.0; cited from earlier work.
Test [3] deals with breast cancer. Conditions: women whose breast cancer has progressed following tamoxifen therapy; cited from earlier work.
The next test concerns MCF-7 tumours. The settings on record: cited from earlier work.

As to `C[C@]12CC[C@@H]3c4ccc(O)cc4C[C@@H](CCCCCCCCC[S+]([O-])CCCC(F)(F)C(F)(F)F)[C@H]3[C@@H]1CC[C@@H]2O` (stereo partly drawn) [fulvestrant, 7-alpha-[9-(4,4,5,5,5pentafluoropentylsulphiny)nonyl]-estra-1,3,5(10)-triene-3, 17βdiol], the “sensitivity of breast cancer to further treatment” value with breast cancer [1] is given as “sensitive to further treatment by fulvestrant”. In test [2] (read-out: IC50, inhibitory effect on the growth of MCF-7 human breast cancer cells), the IC50 was 0.29 nM. Further, the “reduction in MCF-7 cell numbers (inhibition)” value in test [2] was 80%. Moreover, in the test with estrogen receptor (ER), the “relative binding affinity for the estrogen receptor (ER)” value was 0.89. Also, in the test on breast cancer [3], the “efficacy in phase II trial” value was “demonstrated efficacy”. For the same compound, the “duration of growth suppression of established MCF-7 tumours versus tamoxifen” value in the test with MCF-7 tumours (established MCF-7 tumours, compared with tamoxifen treatment) is on record as “twice as long”. Further, the “delay of tumourgenesis versus tamoxifen-treated mice” value with MCF-7 tumours (mice) was “delayed to a greater extent”. The “sensitivity of tamoxifen-resistant MCF-7 tumours to treatment” value with MCF-7 tumours (tumours grown out after long-term treatment with tamoxifen) was “remain sensitive to fulvestrant treatment”.
Consider `CC/C(=C(\c1ccccc1)c1ccc(OCCN(C)C)cc1)c1ccccc1` [tamoxifen], for which, in test [2], the “reduction in MCF-7 cell numbers (inhibition)” value is no more than 50%.
oestradiol: the “relative binding affinity for the estrogen receptor (ER)” value in the test with estrogen receptor (ER) was 1.0.
